Measured values from PMC13492380, “Dissecting Structural and Functional Determinants of Microtubules Stabilization through Guided Chemical Modulation” (Journal of Medicinal Chemistry, 2026).

Columns and labels:
[1] = system: taxane site of assembled cross-linked MTs; assay: Displacement of FTX2 from the taxane site (fluorescence polarization); type: binding, calf; settings: 35 °C
Procedure: Purified calf brain tubulin and chemicals were obtained as previously described. Tau-mCherry was expressed and purified as described previously. Human Kif5B-EGFP (amino acids 1-905), containing a C terminal fluorescent-tag followed by a 3C protease cleavage site and a 6 × His-tag was expressed and purified as in with some modifications. Prior to purification, cells were resuspended in 1:1 ratio of lysis buffer (30 mM HEPES pH 7.5, 300 mM NaCl, 0.5 mM ATP, 5% glycerol, 20 mM imidazole, […]) supplemented with 1× Protease inhibitor cocktail and benzonase to the final concentration of 25 units/ml. Cells were homogenized by repeated pipetting. Cells were lysed by spinning for 45 min at 40,000 rpm in 45 Ti fixed-angle rotor (Beckman Coulter) at 4 °C. The supernatant was incubated with pre-equilibrated HisPUR NiNTA agarose resin (Thermo Fisher Scientific) for 1 h in a tightly closed gravity-flow column (Thermo Fisher Scientific) at 4 °C by slowly rotating. Subsequently, the resin was washed once lysis buffer and then with buffer B (30 mM HEPES pH 7.5, 300 mM NaCl, 0.5 mM ATP, 5% glycerol, 30 mM imidazole, […]). The protein was eluted from the resin after an overnight cleavage of the 6 × His-tag with 3C HRV protease in lysis buffer at 4 °C. The eluted protein was further purified via size exclusion chromatography on Superdex 200 10/300 GL column equilibrated in exclusion buffer (30 mM HEPES pH 7.5, 300 mM NaCl, 0.5 mM ATP, 5% glycerol, […]). Peak fractions were analyzed via SDS-PAGE, pooled and the protein was concentrated with Amicon Ultra-15 Centrifugal Filter tubes (Millipore). Purified proteins were aliquoted, snap-frozen in liquid N2, and stored at −80 °C.
The equilibrium binding constant of 1a and 1b to the taxane site of assembled MTs were determined by the displacement of FTX2 from the taxane site in cross-linked MTs. The displacement isotherm of each ligand was measured at least three times in two different plates with a fluorescence polarization microplate reader, as described. A mixture of 50 nM taxane binding sites and 50 nM FTX2 in GAB buffer was sampled in a 96-well plate. […] After mixing the samples for 10 min by shaking at 250 rpm, they were incubated 20 min at the desired temperatures (26, 35 or 42 °C) and their anisotropies were measured using a Spark Tecan plater reader in fluorescence polarization at emission of 535 nm and excitation of 485 nm. A sample containing 50 nM taxane binding sites was employed as blank, and a 50 nM solution of FTX2 in GAB, 0.1 mM GTP was employed as anisotropy standard. G factor was calculated as a mean over several cells in different conditions. The molar saturation fraction, X b , of the probe for each competitor concentration is calculated from the polarization values measured, P. Measurements of the polarization of FTX2 completely displaced (P 0 ) and, in absence of the competitor ligand (P sat), are required for data processing. The binding of FTX2 in the presence of the competitor ligand (X b = (P–P 0 /P sat – P 0 ) · X sat) was calculated and best fitted to the equilibrium binding constant of the competitor assuming unitary stoichiometry and the binding constant of the reference ligand (FTX2) with a PC program (Equigra v5).
Once the equilibrium binding constants are measured at different temperatures, the standard free energy of binding at a given temperature is calculated from the binding constant as ΔG 0app = −RT Ln K a, the standard enthalpy of the binding reaction is calculated from the representation of Ln K a versus 1/T (Van’t Hoff representation), and the slope of this representation multiplied by −R is equal to −ΔH 0app. The standard entropy of binding to ΔS 0app is calculated from the slope of the linear regression of ΔG 0app versus T.

[2] = system: Tau-mCherry (Tau 441 isoform) on stabilized MTs from porcine brain tubulin; assay: Tau-mCherry binding to stabilized MTs (TIRF); type: biochemical; settings: 40 nM Tau-mCherry
Excerpt: Previous studies in vitro have shown that Tau molecules strongly prefer compacted GDP lattices. Tau binds cooperatively to MT surfaces, resulting in a cohesive layer depending on tau-tau interactions, termed MT envelope, which selectively regulates access to MT lattices, and shields MTs from severing enzymes. − On expanded PTX-MTs, Tau envelope also forms and the lattice can get locally compacted. To further explore how MT lattice structure influences Tau binding, we employed an in vitro reconstitution assay. We deposited stabilized MTs in a flow chamber, and visualized them via interference reflection microscopy (Figure C). We then added 10 nM Tau-mCherry (labeled purified Tau 441 isoform at the C-terminus with mCherry) and monitored its association with MTs using time-lapse TIRF microscopy. After 4 min, we increased Tau concentration to 40 nM, and continued imaging for an additional 4 min. We measured fluorescence intensities along MTs to quantify Tau binding (Movies S16–S27). […] PTXpost-MTs also supported […] faster envelope growth (0.20 ± 0.02 μm/s versus 0.054 ± 0.006 μm/s for PTXpre-MTs, Figure H).
(§1) Total Internal Reflection Fluorescence microscopy experiments were performed on an inverted widefield microscope Nikon-Ti2 E, equipped with a motorized XY-stage, a perfect focus system, Apo TIRF 60× oil NA 1.49 objective and PRIME BSY (Teledyne Photometrics) camera. MTs were visualized using Interference Reflection microscopy (IRM) and fluorescently labeled proteins were visualized sequentially by switching between microscope filter cubes for GFP and mCherry channels. The microscopes were controlled using NIS Elements software (Nikon). All experiments were conducted at RT.
(§2) Microscopy chambers were prepared from two sandwiched silanized glass coverslips (22 × 22 mm^2 and 18 × 18 mm^2) attached through parafilm strips (heated for 15–20 s at 60 °C and gently pressed together) to form ∼2.5 mm wide parallel flow channels. Prior to the chamber assembly, the coverslips were washed in 3 M KOH, cleaned using Zepto plasma cleaner (Diener electronic) and silanized with hexamethyldisilazane. Flow channels were first incubated with 40 μgml^–1 antibiotin antibodies (Sigma, B3640) in PBS for 10 min, followed by incubation with 1% Pluronic F127 (Sigma-Aldrich, P2443) in PBS for at least 1 h. F127 was washed with BRB80 (80 mM PIPES, 1 mM EGTA, 1 mM MgCl2, pH 6.9).
(§3) Porcine brain tubulin was isolated using the high-molarity PIPES procedure then mixed with Biotin labeled tubulin (Cytoskeleton Inc., T333P) in 1:49 ratio. All MTs were polymerized using 2% biotin-labeled tubulin. […] Polymerized MTs were centrifuged for 30 min at 18,000g in a Microfuge 18 Centrifuge (Beckman Coulter’s). […] Drug stabilized preassembly MTs (polymerized in the presence of drugs and GTP, stored and imaged in presence of drug) were polymerized from 4 mg mL^–1 biotinylated tubulin for 30 min at 37 °C in BRB80 supplemented with 4 mM MgCl2, 40 μM drug of interest in 5% DMSO, and 1 mM GTP. Polymerized MTs were centrifuged for 30 min at 18,000g in a Microfuge 18 Centrifuge (Beckman Coulter’s). […] GMPCPP stabilized MTs (GMPCPP polymerized) were assembled from 4 mg mL^–1 biotinylated tubulin for 2 h at 37 °C in BRB80 supplemented with 1 mM MgCl2 and 1 mM GMPCPP (Jena Bioscience, NU-405). Polymerized MTs were centrifuged for 30 min at 18,000g in a Microfuge 18 Centrifuge (Beckman Coulter’s) and pellets were resuspended and kept in BRB80.
Stabilized MTs were flushed into the channel and incubated for 15–30 s to allow for surface attachment. Unbound MTs were removed by washing with BRB80 supplemented with 10 μM of drug. Prior the experiment, the solution was exchanged by motility buffer, MB (BRB80 containing 10 mM DTT, 20 mM D-glucose, 0.1% Tween-20, 0.5 mg/mL casein, 1 mM Mg-ATP, 0.02 mg/mL catalase, 0.22 mg/mL glucose oxidase, 10 μM drug). Subsequently, a solution containing either 1.08 nM Kif5b-EGFP or 10/40 nM mCherry-Tau in MB was introduced into the chamber. […]

[3] = system: human Kif5B 1–905-EGFP on stabilized MTs; assay: Single-molecule kinesin-1 motility assay on stabilized MTs (TIRF); type: biochemical; settings: 1.08 nM Kif5b-EGFP, 10 μM drug
Procedure: To gain mechanistic insight into the kinesin phenotype observed in cells, we reduced system complexity using an in vitro reconstitution assay. Specifically, we performed time-lapse imaging using total internal reflection fluorescence (TIRF) microscopy with immobilized and stabilized MTs in a flow chamber, into which we introduced 1.08 nM kinesin-1 motors (constitutively active human Kif5B 1–905-EGFP). We then analyzed individual kinesin movements to quantify landing rates (number of motors per unit MT length per unit time), run lengths, interaction times, and average velocities (Figure D, Movies S12–S15). In contrast to our experiments in cells, here we evaluated each structural modification individually to dissect the effects of MT lattice parameters on kinesin-1 mediated transport.
as §1, §2, §3
Stabilized MTs were flushed into the channel and incubated for 15–30 s to allow for surface attachment. Unbound MTs were removed by washing with BRB80 supplemented with 10 μM of drug. Prior the experiment, the solution was exchanged by motility buffer, MB (BRB80 containing 10 mM DTT, 20 mM D-glucose, 0.1% Tween-20, 0.5 mg/mL casein, 1 mM Mg-ATP, 0.02 mg/mL catalase, 0.22 mg/mL glucose oxidase, 10 μM drug). Subsequently, a solution containing either 1.08 nM Kif5b-EGFP or 10/40 nM mCherry-Tau in MB was introduced into the chamber.
To assess kinesin-EGFP motility along MTs, an IRM image (50 ms exposure) was acquired followed by a 1 min video using 488 nm laser excitation (20% laser intensity, 300 ms exposure) with no delay. Two to three videos were recorded from different fields within the same channel and at least 2 channels were measure for each experimental condition. […]

Row | Compound | incremental binding free energy (ΔΔG), PTX-to-derivative modification [1] [kJ mol^–1] | Tau-mCherry coating of stabilized MTs [2] | kinesin-1 landing rate on stabilized MTs [3] | kinesin-1 time bound on stabilized MTs [3] | kinesin-1 velocity on stabilized MTs [3]
1 | Flutax-1 [reference compound] | −1.63 | – | – | – | –
2 | Nc1nc2c(ncn2C2OC(COP(=O)(O)CP(=O)(O)OP(=O)(O)O)C(O)C2O)c(=O)[nH]1 (stereo not drawn) [GMPCPP, guanosine-5′-[(α,β)-methyleno]triphosphate] | – | bound diffusively | decreased on GMPCPP compared with PTX | increased the time bound | decreased the velocity
3 | CC(=O)OC1C(=O)C2(C)C(OC(=O)C(C)NC(=O)CCCCCNC(=O)c3ccc(-c4c5ccc(=O)cc-5oc5cc(O)ccc45)c(C(=O)O)c3)CC3OCC3(OC(C)=O)C2C(OC(=O)c2ccccc2)C2(O)CC(OC(=O)C(O)C(NC(=O)c3ccccc3)c3ccccc3)C(C)=C1C2(C)C (stereo not drawn) [HFX, Hexaflutax, reference compound] | 6.9 | – | – | – | –
